{
  "source": "patent US6680025B2",
  "about": "“Device and method for photoactivation” (Cerus Corporation, priority 1989, dated 2004)",
  "key": {"[1]": {"tested_on": "Molt-4 human genomic DNA (human beta globin gene)", "assay": "Sterilization of genomic target before PCR (beta globin 174 bp)", "assay_type": "biochemical", "protocol": "Four samples containing 1 μg of Molt-4 human genomic DNA target were prepared for PCR with primers KM 29 (5′-[…]) and HRI-12 (5′-[…]). These primers give a 174 bp product within the human beta globin gene. All four samples contained AMDMIP at 100 μg/ml, and were irradiated for 0, 5, 10 or 15 minutes prior to PCR amplification. […] Amplification were carried out in 1×Taq buffer (50 mM KCl, 10 mM Tris pH 8.5, 2.5 mM MgCl2, 200 μg/ml gelatin), 175 μM each dNTP, 20 μM primer with 2.5 units of Taq polymerase and 100 μg/ml AMDMIP present during amplification. PCR was carried out for 30 cycles; one cycle=30 sec at 94° C. (denaturing), 30 sec at 55° C. (primer annealing), and 60 sec at 72° C. (extension). α-[…] was used as an internal label. After amplification, the samples were analyzed for product by PAGE followed by autoradiography."}, "[2]": {"tested_on": "calf thymus DNA", "assay": "Binding of photoproduct to nucleic acid (dark reaction after pre-irradiation)", "protocol": "The nucleic acid binding properties of photoproduct were investigated with calf thymus DNA. 200 μg/ml of ^3H-AMDMIP (1×10^5 CPM/ml) in Taq buffer was irradiated at room temperature with either the CE-III device or the PTI device. This irradiation was performed for 15 minutes in the absence of nucleic acid. Following the irradiations, 200 μl of the irradiated solution was mixed with 200 μl of 1000 μg/ml DNA solution in Taq buffer. Several identical samples were prepared in this manner. One set of samples was allowed to react with the DNA for 2 hours at room temperature. The other set of samples was subjected to 30 cycles of heating and cooling by placing the samples in a thermal cycler [Perkin-Elmer Cetus DNA Thermal Cycler (Part No. N8010150); each cycle involved 93° C. for 30 seconds, 55° C. for 30 seconds and 72° C. for 1 minute]. When the DNA reactions were complete, all samples were analyzed for DNA-associated tritium counts (CPM) by following the flow chart outlined in FIG. 17.\nThe DNA-associated counts are given in terms of adducts per 100 base pairs in Table 10. For calculation purposes, these adducts are reported as if they represented monomers of AMDMIP. Regardless of the accuracy of this approximation, the process of irradiating ^3H-AMDMIP clearly results in a tritiated product which associates (i.e. binds) with DNA in the absence of subsequent activating wavelengths of electromagnetic radiation. The extent of the association is shown in Table 10 to depend upon the reaction conditions."}, "[3]": {"tested_on": "HIV 115-mer", "assay": "Crosslinkable Oligonucleotide Probe Analysis (COP) after sterilization", "assay_type": "biochemical", "protocol": "Preparation of Samples: The HIV 115-mer system with primers SK-38/SK-39 was used for the experiment (see FIG. 36, “HIV Oligonucleotide System”). Two types of starting template were used: previously amplified 115-mer or genomic DNA, isolated from an individual known to be infected with HIV (MACS sample). For previously amplified 115-mer between 10^5 and 10^6 copies were used for starting template. For the genomic (MACS) sample, approximately 1 μg (3×10^5 copies) of genomic DNA were used. Two PCR samples were prepared for each type of template then amplification was carried out for either 20 or 30 cycles. One of the two PCR samples contained AMDMIP at 200 μg/ml while the other was AMDMIP free. Following amplification, the AMDMIP containing samples were divided and half were irradiated. Analysis (OH or COP) was then done on the three samples from each set (AMDMIP free, AMDMIP unirradiated, and AMDMIP irradiated) for each cycle number. The AMDMIP free samples served as control, the AMDMIP unirradiated sampes adressed the effect of non-covalently bound AMDMIP on detection, and AMDMIP irradiated samples addressed the effect of covalently bound AMDMIP on detection.\nCOP and OH assays were performed a follows. 10 μl of the PCR reaction mixture was added to 3.3 μl of “probe mix” [5′-labelled SK-19 (normal or monoadducted) at 10^−8 M containing EDTA and an appropriate salt mixtures], overlaid with 30-40 μl of light mineral oil, then heated to 95-100° C. for 5 minutes. For COP, the hybridization mixture as placed in the PTI device at 56° C. and irradiated for 15 minutes. Following this, loading dyes (containing urea or formamide) were added, the sample heated to 95-100° C. for 5 minutes, quick chilled on wet ice, then loaded on a denaturing PAGE gel followed by electrophoresis under denaturing conditions. For OH reactions, the hybridization mixture was incubated at 56° C. for 30 minutes, loading dyes added, and aliquots loaded directly into a native PAGE gel followed by electrophoresis under native conditions. 1. Samples 1-6 contain previously amplified 115-mer that was re-amplified either 20 (samples 1,3,5) or 30 (Samples 2,4,6) cycles then detected by COP. Samples 1 & 2 are controls (without AMDMIP); samples 3 and 4 are (with AMDMIP and with light) sterilized samples; samples 5 & 6 are (with AMDMIP but without light) controls. The bands corresponding to amplified 115-mer crosslinked to labelled 41-mer probe (SK-19 MA) are the upper bands in FIG. 46. Samples 11-16 are the same series except the MACS sample was used as template."}, "[4]": {"tested_on": "human placental DNA", "assay": "PCR in presence of AMDMIP and DMSO co-solvent", "assay_type": "biochemical", "settings": "AMDMIP 200 μg/ml", "protocol": "In this example, the effect of DMSO on PCR amplification in the presence of high concentrations of sterilizing compound (AMDMIP) was investigated. Samples were prepared for PCR which contained 1 μg of human placental DNA either with or without (unirradiated) AMDMIP (200 μg/ml). The samples were amplified 30 cycles under standard PCR conditions in the presence of 0%, 1%, 5% or 10% DMSO. The reaction mix contained α-^32P-dCTP. Following amplification, the samples were analyzed by PAGE (data not shown)."}},
  "data": [
    {"smiles": "Cc1oc2ccc3c(C)cc(=O)oc3c2c1CN", "note": "[AMDMIP, 4′-Aminomethyl-4,5′-dimethylisopsoralen]", "values": [
      {"measurement": "impact of unirradiated AMDMIP on amplification", "setting": "[1]; 100 μg/ml (data not shown)", "value": "no significant impact on amplification"},
      {"measurement": "amplification of genomic target irradiated in presence of AMDMIP", "setting": "[1]; AMDMIP 100 μg/ml, irradiated 0, 5, 10 or 15 minutes before PCR, 30 cycles", "value": "no amplification of the sterilized genomic target"},
      {"measurement": "ADDUCTS PER 1000 BASE PAIRS", "setting": "[2]; device CE-II, pre-irradiated 15 mins. without nucleic acid, dark reaction room temp.", "value": 4.4},
      {"measurement": "ADDUCTS PER 1000 BASE PAIRS", "setting": "[2]; device CE-III, pre-irradiated 15 mins. without nucleic acid, dark reaction thermally cycled", "value": 24.3},
      {"measurement": "ADDUCTS PER 1000 BASE PAIRS", "setting": "[2]; device PTI, pre-irradiated 15 mins. without nucleic acid, dark reaction thermally cycled", "value": 5.7},
      {"measurement": "ADDUCTS PER 1000 BASE PAIRS", "setting": "[2]; no irradiation, dark reaction room temp. 2 hours", "value": 1.1},
      {"measurement": "ADDUCTS PER 1000 BASE PAIRS", "setting": "[2]; no irradiation, dark reaction thermally cycled 30 cycles", "value": 0.9},
      {"measurement": "COP hybrid band CPM", "setting": "[3]; sample 3: previously amplified 115-mer, 20 cycles, AMDMIP 200 μg/ml with light", "value": 1944, "unit": "CPM"},
      {"measurement": "COP hybrid band CPM as % of AMDMIP-free control", "setting": "[3]; sample 3: previously amplified 115-mer, 20 cycles, AMDMIP with light", "value": 62, "unit": "%"},
      {"measurement": "COP hybrid band CPM", "setting": "[3]; sample 4: previously amplified 115-mer, 30 cycles, AMDMIP 200 μg/ml with light", "value": 36452, "unit": "CPM"},
      {"measurement": "COP hybrid band CPM as % of AMDMIP-free control", "setting": "[3]; sample 4: previously amplified 115-mer, 30 cycles, AMDMIP with light", "value": 83, "unit": "%"},
      {"measurement": "COP hybrid band CPM", "setting": "[3]; sample 5: previously amplified 115-mer, 20 cycles, AMDMIP 200 μg/ml without light", "value": 4480, "unit": "CPM"},
      {"measurement": "COP hybrid band CPM as % of AMDMIP-free control", "setting": "[3]; sample 5: previously amplified 115-mer, 20 cycles, AMDMIP without light", "value": 144, "unit": "%"},
      {"measurement": "COP hybrid band CPM", "setting": "[3]; sample 6: previously amplified 115-mer, 30 cycles, AMDMIP 200 μg/ml without light", "value": 39596, "unit": "CPM"},
      {"measurement": "COP hybrid band CPM as % of AMDMIP-free control", "setting": "[3]; sample 6: previously amplified 115-mer, 30 cycles, AMDMIP without light", "value": 90, "unit": "%"},
      {"measurement": "COP hybrid band CPM", "setting": "[3]; sample 13: MACS genomic DNA, 20 cycles, AMDMIP 200 μg/ml with light", "value": 460, "unit": "CPM"},
      {"measurement": "COP hybrid band CPM as % of AMDMIP-free control", "setting": "[3]; sample 13: MACS genomic DNA, 20 cycles, AMDMIP with light", "value": 52, "unit": "%"},
      {"measurement": "COP hybrid band CPM", "setting": "[3]; sample 14: MACS genomic DNA, 30 cycles, AMDMIP 200 μg/ml with light", "value": 41777, "unit": "CPM"},
      {"measurement": "COP hybrid band CPM as % of AMDMIP-free control", "setting": "[3]; sample 14: MACS genomic DNA, 30 cycles, AMDMIP with light", "value": 78, "unit": "%"},
      {"measurement": "COP hybrid band CPM", "setting": "[3]; sample 15: MACS genomic DNA, 20 cycles, AMDMIP 200 μg/ml without light", "value": 464, "unit": "CPM"},
      {"measurement": "COP hybrid band CPM as % of AMDMIP-free control", "setting": "[3]; sample 15: MACS genomic DNA, 20 cycles, AMDMIP without light", "value": 53, "unit": "%"},
      {"measurement": "COP hybrid band CPM", "setting": "[3]; sample 16: MACS genomic DNA, 30 cycles, AMDMIP 200 μg/ml without light", "value": 35176, "unit": "CPM"},
      {"measurement": "COP hybrid band CPM as % of AMDMIP-free control", "setting": "[3]; sample 16: MACS genomic DNA, 30 cycles, AMDMIP without light", "value": 66, "unit": "%"},
      {"measurement": "product band CPM", "setting": "[4]; 0% DMSO", "value": 2500, "unit": "CPM"},
      {"measurement": "product band CPM", "setting": "[4]; 1% DMSO", "value": 2800, "unit": "CPM"},
      {"measurement": "product band CPM", "setting": "[4]; 5% DMSO", "value": "86,000 CPM"},
      {"measurement": "product band CPM", "setting": "[4]; 10% DMSO", "value": "102,000 CPM"},
      {"measurement": "amplification in presence of unirradiated AMDMIP", "setting": "[4]; no DMSO, 30 cycles", "value": "virtually no detectable amplification product"}
    ]}
  ]
}
